According to ChEMBL document CHEMBL5465560, “Selectivity Literature for EUbOPEN Chemogenomic Library” (2024):

What was measured:
[1] = target: T1, Muscle, skeletal receptor tyrosine-protein kinase (Homo sapiens) (UniProt O15146); test: Selectivity interaction (KinomeScan (DiscoverX)) EUB0000229b MUSK; conditions: at 10 µM
T1 sequence (whole entry): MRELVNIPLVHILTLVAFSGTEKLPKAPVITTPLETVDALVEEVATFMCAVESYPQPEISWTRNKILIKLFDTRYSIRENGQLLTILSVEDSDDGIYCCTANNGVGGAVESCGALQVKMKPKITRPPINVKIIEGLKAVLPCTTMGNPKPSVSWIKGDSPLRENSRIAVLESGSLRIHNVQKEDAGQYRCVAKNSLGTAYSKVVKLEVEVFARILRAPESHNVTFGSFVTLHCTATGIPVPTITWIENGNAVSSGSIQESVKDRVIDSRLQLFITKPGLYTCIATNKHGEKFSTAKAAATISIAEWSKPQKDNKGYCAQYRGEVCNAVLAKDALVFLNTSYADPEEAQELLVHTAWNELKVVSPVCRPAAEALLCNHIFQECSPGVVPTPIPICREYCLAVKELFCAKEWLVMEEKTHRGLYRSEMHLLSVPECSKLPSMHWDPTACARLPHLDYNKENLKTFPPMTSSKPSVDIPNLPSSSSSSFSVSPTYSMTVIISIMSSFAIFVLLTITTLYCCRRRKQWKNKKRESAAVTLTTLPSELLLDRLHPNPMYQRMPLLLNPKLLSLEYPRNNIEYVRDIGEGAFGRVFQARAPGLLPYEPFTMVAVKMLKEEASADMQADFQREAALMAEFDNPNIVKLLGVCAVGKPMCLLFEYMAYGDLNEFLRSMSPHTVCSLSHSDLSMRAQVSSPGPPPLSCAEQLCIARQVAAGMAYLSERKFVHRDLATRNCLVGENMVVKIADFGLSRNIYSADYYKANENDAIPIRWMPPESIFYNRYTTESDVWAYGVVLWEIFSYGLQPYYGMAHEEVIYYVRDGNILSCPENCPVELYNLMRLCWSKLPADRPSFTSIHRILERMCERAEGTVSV

[2] = target: Alpha-2B adrenergic receptor (Homo sapiens) (UniProt P18089); test: Selectivity interaction (GPCR panel (PDSP screen)) EUB0001079a ADRA2B; conditions: at 10 µM
[3] = target: Dual specificity tyrosine-phosphorylation-regulated kinase 1A (Homo sapiens, UniProt Q13627); test: Selectivity interaction (Kinase panel (DSF assay)) EUB0001559a DYRK1A
[4] = target: Serine/threonine-protein kinase PAK 1 (Homo sapiens) (UniProt Q13153); test: Selectivity interaction (Kinase panel (Invitrogen)) EUB0000639a PAK1; conditions: at 200 nM
[5] = target: Tyrosine-protein kinase Lyn (Homo sapiens, UniProt P07948); test: Selectivity interaction (Kinase screening (Upstate/Millipore)) EUB0000604a LYN
[6] = target: T2, Serine/threonine-protein kinase RIO1 (Homo sapiens) (UniProt Q9BRS2); test: Selectivity interaction (KinomeScan (DiscoverX)) EUB0000618a RIOK1; conditions: at 10 µM
T2 sequence (whole entry): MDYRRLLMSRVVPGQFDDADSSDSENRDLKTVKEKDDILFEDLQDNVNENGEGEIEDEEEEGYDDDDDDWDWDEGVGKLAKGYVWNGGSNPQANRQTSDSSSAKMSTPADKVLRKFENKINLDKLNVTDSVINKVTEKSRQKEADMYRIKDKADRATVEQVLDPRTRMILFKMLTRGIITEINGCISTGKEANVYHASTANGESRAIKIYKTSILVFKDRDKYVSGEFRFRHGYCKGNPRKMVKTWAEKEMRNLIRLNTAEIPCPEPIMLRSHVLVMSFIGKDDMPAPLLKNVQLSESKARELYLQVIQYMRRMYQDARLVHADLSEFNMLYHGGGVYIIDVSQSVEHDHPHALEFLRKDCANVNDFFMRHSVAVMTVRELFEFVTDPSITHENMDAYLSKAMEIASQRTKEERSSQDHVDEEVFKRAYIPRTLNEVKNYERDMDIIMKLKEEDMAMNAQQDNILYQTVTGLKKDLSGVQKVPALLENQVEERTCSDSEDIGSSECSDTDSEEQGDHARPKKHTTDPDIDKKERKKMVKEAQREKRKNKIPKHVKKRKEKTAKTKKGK

[7] = target: Serine/threonine-protein kinase/endoribonuclease IRE1 (Homo sapiens) (UniProt O75460); test: Selectivity interaction (KinomeScan (DiscoverX)) EUB0000618a ERN1; conditions: at 10 µM
[8] = target: T3, TGF-beta receptor type-1 (Homo sapiens) (UniProt P36897); test: Selectivity interaction (KinomeScan (DiscoverX)) EUB0000655a TGFBR1; conditions: at 10 µM
T3 sequence (whole entry): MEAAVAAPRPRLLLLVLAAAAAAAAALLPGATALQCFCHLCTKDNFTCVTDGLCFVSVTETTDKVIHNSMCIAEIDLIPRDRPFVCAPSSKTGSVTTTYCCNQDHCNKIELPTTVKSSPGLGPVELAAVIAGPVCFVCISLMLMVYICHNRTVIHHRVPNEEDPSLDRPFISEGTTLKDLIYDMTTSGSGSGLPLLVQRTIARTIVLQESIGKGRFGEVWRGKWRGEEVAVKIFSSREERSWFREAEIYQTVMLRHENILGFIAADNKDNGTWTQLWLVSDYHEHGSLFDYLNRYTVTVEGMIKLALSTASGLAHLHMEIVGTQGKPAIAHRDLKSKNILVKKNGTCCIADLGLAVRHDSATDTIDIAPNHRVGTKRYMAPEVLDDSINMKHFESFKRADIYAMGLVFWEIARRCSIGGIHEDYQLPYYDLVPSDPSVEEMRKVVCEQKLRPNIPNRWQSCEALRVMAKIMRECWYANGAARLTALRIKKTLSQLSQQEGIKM

[9] = target: Mast/stem cell growth factor receptor Kit (Homo sapiens, UniProt P10721); test: Selectivity interaction (KinomeScan (DiscoverX)) EUB0000695a KIT; conditions: at 100 nM
[10] = target: Mitogen-activated protein kinase kinase kinase kinase 1 (Homo sapiens) (UniProt Q92918); test: Selectivity interaction (KinomeScan (DiscoverX)) EUB0000607a MAP4K1; conditions: at 10 µM
[11] = tested on: Tyrosine-protein kinase ABL1 (Homo sapiens), P00519 [T315I]; test: (§1) Selectivity interaction (KinomeScan (DiscoverX)) EUB0000607a ABL1; conditions: at 10 µM
[12] = target: Tyrosine-protein kinase ABL1 (Homo sapiens, UniProt P00519); test: as §1; conditions: at 10 µM
[13] = tested on: Tyrosine-protein kinase ABL1 (Homo sapiens), P00519 [Y253F]; test: as §1; conditions: at 10 µM
[14] = tested on: Tyrosine-protein kinase ABL1 (Homo sapiens), P00519 [F317L]; test: as §1; conditions: at 10 µM
[15] = tested on: Tyrosine-protein kinase ABL1 (Homo sapiens), P00519 [M351T]; test: as §1; conditions: at 10 µM
[16] = tested on: Tyrosine-protein kinase ABL1 (Homo sapiens), P00519 [Q252H]; test: as §1; conditions: at 10 µM
[17] = tested on: Tyrosine-protein kinase ABL1 (Homo sapiens), P00519 [E255K]; test: as §1; conditions: at 10 µM
[18] = tested on: Tyrosine-protein kinase ABL1 (Homo sapiens), P00519 [F317I]; test: as §1; conditions: at 10 µM
[19] = tested on: Tyrosine-protein kinase ABL1 (Homo sapiens), P00519 [H396P]; test: as §1; conditions: at 10 µM

Alpha-2B adrenergic receptor (Homo sapiens), sequence (P18089 whole entry): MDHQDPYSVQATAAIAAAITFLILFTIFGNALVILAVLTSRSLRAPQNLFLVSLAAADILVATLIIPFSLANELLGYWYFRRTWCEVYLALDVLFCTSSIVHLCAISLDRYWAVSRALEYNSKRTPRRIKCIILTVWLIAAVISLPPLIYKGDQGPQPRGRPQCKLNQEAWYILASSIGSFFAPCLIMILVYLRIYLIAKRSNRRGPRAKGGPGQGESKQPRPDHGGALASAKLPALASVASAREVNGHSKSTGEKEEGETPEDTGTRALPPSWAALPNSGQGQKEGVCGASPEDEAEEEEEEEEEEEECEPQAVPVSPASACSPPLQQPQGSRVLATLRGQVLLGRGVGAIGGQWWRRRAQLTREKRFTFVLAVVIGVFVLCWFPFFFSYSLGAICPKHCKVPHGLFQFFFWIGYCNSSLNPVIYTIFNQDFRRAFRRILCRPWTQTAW
Serine/threonine-protein kinase PAK 1 (Homo sapiens), sequence (Q13153 whole entry): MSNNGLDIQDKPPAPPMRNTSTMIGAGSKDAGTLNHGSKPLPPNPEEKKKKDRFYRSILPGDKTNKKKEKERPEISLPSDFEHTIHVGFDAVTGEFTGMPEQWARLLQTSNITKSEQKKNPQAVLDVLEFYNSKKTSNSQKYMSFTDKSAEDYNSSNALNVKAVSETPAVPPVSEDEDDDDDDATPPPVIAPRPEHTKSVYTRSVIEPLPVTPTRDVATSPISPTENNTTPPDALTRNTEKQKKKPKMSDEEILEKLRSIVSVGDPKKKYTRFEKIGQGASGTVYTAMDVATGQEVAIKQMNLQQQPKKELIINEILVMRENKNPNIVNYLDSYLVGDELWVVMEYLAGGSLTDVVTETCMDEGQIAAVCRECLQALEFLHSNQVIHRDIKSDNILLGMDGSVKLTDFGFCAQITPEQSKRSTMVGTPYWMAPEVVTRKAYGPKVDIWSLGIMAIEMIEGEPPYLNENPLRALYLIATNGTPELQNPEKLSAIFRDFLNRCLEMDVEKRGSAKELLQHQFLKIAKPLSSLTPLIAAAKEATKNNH
Mitogen-activated protein kinase kinase kinase kinase 1 (Homo sapiens), sequence (Q92918 whole entry, looked up): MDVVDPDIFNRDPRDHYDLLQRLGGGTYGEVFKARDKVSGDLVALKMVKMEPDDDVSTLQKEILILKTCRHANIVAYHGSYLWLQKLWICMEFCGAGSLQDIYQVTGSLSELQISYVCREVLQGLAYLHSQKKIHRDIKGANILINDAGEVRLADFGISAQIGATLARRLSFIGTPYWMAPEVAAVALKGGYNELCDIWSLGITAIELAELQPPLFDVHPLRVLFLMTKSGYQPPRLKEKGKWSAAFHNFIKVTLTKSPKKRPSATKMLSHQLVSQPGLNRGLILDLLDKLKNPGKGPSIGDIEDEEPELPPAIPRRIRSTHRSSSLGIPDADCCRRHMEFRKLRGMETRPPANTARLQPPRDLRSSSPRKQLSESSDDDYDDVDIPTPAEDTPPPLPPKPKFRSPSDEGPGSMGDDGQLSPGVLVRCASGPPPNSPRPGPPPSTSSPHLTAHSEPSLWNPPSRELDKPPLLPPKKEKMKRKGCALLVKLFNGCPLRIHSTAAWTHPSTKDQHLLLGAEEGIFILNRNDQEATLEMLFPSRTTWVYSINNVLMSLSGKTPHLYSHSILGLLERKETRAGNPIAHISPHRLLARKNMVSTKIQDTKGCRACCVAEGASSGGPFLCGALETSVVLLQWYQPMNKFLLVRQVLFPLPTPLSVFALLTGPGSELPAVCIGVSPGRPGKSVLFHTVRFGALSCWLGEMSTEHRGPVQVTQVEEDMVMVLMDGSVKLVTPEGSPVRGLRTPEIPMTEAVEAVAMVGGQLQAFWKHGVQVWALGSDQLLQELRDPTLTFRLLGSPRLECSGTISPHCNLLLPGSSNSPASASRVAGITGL
Tyrosine-protein kinase Lyn, sequence (P07948 2-512 limits assumed): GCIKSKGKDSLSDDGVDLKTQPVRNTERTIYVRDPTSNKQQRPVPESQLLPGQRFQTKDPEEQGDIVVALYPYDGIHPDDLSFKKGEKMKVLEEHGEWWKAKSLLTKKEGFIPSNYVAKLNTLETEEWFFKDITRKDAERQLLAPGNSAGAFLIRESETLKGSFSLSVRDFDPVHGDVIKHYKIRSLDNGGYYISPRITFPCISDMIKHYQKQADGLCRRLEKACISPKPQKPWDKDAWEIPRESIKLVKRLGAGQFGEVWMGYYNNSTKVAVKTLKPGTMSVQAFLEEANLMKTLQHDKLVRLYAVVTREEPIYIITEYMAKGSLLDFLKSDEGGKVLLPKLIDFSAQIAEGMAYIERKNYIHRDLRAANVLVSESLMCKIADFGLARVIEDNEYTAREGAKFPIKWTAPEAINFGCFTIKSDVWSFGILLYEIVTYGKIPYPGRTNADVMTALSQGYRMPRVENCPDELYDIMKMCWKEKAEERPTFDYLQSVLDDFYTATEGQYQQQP
Serine/threonine-protein kinase/endoribonuclease IRE1 (Homo sapiens), sequence (O75460 19-977 limits assumed): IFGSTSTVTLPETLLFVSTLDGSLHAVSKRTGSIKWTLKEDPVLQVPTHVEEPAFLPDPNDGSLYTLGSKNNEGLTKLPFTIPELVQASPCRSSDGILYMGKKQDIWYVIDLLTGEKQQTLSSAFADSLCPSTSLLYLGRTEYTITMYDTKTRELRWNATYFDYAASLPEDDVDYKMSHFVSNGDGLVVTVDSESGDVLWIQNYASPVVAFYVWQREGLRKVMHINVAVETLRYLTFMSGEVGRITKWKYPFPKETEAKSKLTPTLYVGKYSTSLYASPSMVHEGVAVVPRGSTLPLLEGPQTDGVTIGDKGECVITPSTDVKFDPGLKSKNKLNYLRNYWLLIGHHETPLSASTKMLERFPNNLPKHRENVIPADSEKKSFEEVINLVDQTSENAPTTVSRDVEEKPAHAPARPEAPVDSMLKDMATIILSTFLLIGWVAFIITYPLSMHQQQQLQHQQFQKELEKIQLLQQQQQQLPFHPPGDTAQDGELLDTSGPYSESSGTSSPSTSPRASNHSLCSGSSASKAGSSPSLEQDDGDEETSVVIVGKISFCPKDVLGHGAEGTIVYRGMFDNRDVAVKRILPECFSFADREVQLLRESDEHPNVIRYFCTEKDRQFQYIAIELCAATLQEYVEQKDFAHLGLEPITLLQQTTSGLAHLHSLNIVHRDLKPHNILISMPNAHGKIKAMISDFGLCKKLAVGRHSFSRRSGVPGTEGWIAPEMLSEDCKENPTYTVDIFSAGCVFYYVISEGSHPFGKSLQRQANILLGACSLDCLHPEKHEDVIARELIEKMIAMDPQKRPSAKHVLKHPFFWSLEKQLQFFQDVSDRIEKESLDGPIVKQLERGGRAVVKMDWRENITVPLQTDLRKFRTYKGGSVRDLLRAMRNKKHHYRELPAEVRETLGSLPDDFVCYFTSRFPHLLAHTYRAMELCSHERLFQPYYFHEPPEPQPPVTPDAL
Mast/stem cell growth factor receptor Kit, sequence (P10721 whole entry): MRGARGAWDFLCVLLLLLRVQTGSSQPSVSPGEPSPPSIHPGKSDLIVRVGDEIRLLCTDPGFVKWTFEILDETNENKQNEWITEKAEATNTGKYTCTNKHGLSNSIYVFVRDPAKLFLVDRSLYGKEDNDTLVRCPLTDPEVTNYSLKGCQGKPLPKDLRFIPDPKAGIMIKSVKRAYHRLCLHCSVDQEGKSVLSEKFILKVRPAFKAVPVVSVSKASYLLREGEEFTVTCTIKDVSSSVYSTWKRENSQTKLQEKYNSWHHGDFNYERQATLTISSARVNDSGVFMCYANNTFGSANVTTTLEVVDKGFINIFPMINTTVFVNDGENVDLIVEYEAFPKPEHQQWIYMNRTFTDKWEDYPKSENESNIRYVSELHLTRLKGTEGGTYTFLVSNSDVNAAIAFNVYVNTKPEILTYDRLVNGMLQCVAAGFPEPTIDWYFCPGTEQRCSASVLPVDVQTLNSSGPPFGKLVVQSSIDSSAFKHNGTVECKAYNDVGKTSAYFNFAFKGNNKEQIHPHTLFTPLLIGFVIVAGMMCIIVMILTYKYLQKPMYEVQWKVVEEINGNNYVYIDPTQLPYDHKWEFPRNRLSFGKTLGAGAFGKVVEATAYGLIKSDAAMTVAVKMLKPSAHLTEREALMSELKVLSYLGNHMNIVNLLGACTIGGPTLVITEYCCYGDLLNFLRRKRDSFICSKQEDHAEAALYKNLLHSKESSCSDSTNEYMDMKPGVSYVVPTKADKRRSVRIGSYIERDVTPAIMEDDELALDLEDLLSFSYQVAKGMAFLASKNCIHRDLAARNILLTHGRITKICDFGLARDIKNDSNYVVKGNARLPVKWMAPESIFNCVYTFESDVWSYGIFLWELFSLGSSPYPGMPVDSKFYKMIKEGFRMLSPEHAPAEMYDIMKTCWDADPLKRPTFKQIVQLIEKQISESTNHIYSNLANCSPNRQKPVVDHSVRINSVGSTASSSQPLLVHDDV

SMILES: COc1cc(N(C)c2ccnc3ccc(C(F)(F)F)cc23)cc(OC)c1OC
- % binding [1]: 81%

SMILES: Nc1cnc(N2CCc3cc(S(=O)(=O)Nc4c(F)cc(Cl)cc4F)cc(N4CCCC4=O)c32)nc1 [TP-020n]
- % of inhibition [2]: 0.99%

SMILES: CN(C(=O)c1cnn2cccnc12)c1cc2c(cc1N1CCOCC1)C(=O)N(C[C@@H](F)C(C)(C)O)C2
- dTM [3]: -0.3 K

SMILES: CC[C@@H]1[C@H](F)C(=O)N[C@@H]1COc1nccc2cc(C(N)=O)c(OC)cc12 [ZIMLOVISERTIB]
- % of inhibition [4]: -9.19%

SMILES: Cc1cnc(Nc2ccc(F)cc2Cl)nc1-c1c[nH]c(C(=O)N[C@H](CO)c2cccc(Cl)c2)c1
- % of inhibition [5]: 7%

SMILES: O[C@H]1CC[C@H](Nc2ncc3nc(Nc4c(F)cc(F)cc4F)n([C@H]4CCOC4)c3n2)CC1
- % of control [6]: 100%
- % of control [7]: 46%

SMILES: CN(C)CCOc1ccc(-c2nc(-c3ccncc3)c(-c3ccc4c(c3)CC/C4=N\O)[nH]2)cc1
- % of control [8]: 17%

SMILES: Cc1cc(F)c(C(=O)Nc2cccc(-c3nncn3C(C)C)n2)cc1-n1cnc(C2CC2)c1
- % of control [9]: 100%

SMILES: CNC(=O)Nc1ccc(-c2nc(N3CC4CCC(C3)O4)c3cnn(C4CCC5(CC4)OCCO5)c3n2)cc1
- % of control [10]: 94%
- % of control [11]: 83%
- % of control [12]: 100%
- % of control [13]: 99%
- % of control [14]: 100%
- % of control [15]: 100%
- % of control [16]: 100%
- % of control [17]: 100%
- % of control [18]: 100%
- % of control [19]: 100%
